In paper PMC11650361 (Archiv Der Pharmazie, 2024):
Where two headings read alike, the source gives them in different places.

Tests used:
porcine liver CES [1] = test system: porcine liver CES; parameters: method as in PMID 35322571; conditions: % inhibition at 20 μM; cited from earlier work
[2] = parameters: method as in PMID 35322571; conditions: cited from earlier work
[3] = ABTS radical cation scavenging activity assay; conditions: for ABTS^•+‐scavenging activity, TEAC: relative to Trolox, 1 h incubation, n.a. = inactive; for IC50: concentration reducing ABTS radical by 50%, 1 h
Protocol: Data are given for 1 h of incubation of compounds with ABTS^•+. The AOA of the compounds was evaluated as Trolox equivalent antioxidant capacity (TEAC values) as the ratio of the slopes of the concentration–response curves, test compound/Trolox. All tests were performed at least in triplicate in three independent experiments. The IC50 values for the test compounds were also determined.

[4] = test system: HEK293T (human embryonic kidney) cells; experiment: Cytotoxicity, MTT assay, HEK293T; assay type: cell-based; conditions: HEK-293T, 24 h
[5] = test system: HepG2 cells (human hepatocellular carcinoma); experiment: Cytotoxicity, MTT assay, HepG2; assay type: cell-based
[6] = test system: SH‐SY5Y (human neuroblastoma) cells; experiment: Cytotoxicity, MTT assay, SH-SY5Y; assay type: cell-based; conditions: 24 h
[7] = cited from earlier work
human erythrocyte AChE = target: T1, human erythrocyte AChE (Homo sapiens, UniProt P22303); experiment: biochemical; assay type: biochemical; conditions: for IC50: human erythrocyte AChE, mean ± SEM, n = 3
T1 construct: purchased Sigma-Aldrich; Milamed, Perm, Russia (supplement); host or cells: human erythrocytes
T1 sequence (P22303 32-617 isoform P22303-2 limits assumed): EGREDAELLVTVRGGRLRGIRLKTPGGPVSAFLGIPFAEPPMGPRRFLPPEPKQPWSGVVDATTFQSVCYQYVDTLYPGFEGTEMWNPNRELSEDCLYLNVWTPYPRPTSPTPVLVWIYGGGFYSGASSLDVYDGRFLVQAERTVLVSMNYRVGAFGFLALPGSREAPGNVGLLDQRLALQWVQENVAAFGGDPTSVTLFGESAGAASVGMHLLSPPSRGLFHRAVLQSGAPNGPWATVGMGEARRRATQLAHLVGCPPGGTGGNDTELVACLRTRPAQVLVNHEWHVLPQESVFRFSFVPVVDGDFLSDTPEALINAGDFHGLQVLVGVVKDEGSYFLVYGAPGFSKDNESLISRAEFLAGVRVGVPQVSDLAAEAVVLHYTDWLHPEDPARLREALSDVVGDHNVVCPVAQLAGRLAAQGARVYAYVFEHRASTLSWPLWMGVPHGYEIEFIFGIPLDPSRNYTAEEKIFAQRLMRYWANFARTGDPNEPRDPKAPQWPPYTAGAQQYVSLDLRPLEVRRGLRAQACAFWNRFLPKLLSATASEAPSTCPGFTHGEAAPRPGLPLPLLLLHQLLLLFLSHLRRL

equine serum BChE = target: T2, equine serum BChE (Equus caballus, UniProt P81908); experiment: biochemical; conditions: for IC50: equine serum BChE, mean ± SEM, n = 3
T2 construct: purchased Sigma-Aldrich; Milamed, Perm, Russia (supplement); host or cells: horse serum
T2 sequence (P81908 whole entry): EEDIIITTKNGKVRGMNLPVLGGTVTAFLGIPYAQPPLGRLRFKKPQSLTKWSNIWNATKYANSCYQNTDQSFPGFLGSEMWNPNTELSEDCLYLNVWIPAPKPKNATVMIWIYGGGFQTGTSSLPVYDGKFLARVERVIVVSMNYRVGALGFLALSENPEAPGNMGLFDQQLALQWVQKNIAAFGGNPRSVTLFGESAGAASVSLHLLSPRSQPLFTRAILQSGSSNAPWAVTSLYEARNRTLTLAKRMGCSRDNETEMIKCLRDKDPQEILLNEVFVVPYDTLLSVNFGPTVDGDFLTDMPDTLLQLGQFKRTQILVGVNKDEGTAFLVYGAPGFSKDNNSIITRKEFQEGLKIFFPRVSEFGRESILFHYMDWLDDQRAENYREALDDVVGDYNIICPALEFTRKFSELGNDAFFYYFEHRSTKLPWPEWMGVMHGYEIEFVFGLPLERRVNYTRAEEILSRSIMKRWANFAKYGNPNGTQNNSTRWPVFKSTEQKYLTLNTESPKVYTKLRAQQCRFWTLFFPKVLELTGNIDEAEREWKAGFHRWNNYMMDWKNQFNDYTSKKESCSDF

porcine liver CES [8] = experiment: In vitro CES inhibition (4-NPA substrate); assay type: biochemical; conditions: for CES inhibition, %: % inhibition at 20 μM, n.a. = not active
Protocol: The esterase profile of the synthesized conjugates was determined. This included an assessment of their inhibition of cholinergic targets AChE and BChE along with a structurally related enzyme CES (EC 3.1.1.1), which hydrolyzes numerous ester‐containing drugs and is considered as an off‐target for anti‐AD agents.^[ [9], [40] ^] Human erythrocyte AChE, equine serum BChE, and porcine liver CES were used.^[ [40], [41], [42] ^]
Initially, we used a single concentration of 20 µM for all compounds.
^a All experiments were carried out in accordance with the standard protocols approved by IPAС RAS. Human erythrocyte AChE, equine serum BChE were purchased from Milamed (Perm, Russia). Porcine liver CES, substrates, and reference compounds were from Sigma-Aldrich (St. Louis, MO, USA). The activity of enzymes was measured spectrophotometrically, as described in detail in ^[1] using ATCh iodide, BTCh iodide, and 4-NPA as substrates for AChE, BChE, and CES, respectively. Experimental conditions: K,Na-phosphate buffer (100 mM), 25 °С, pH 7.5 for AChE and BChE and pH 8.0 for CES assay. Measurements were carried out on a FLUOStar Optima microplate reader (BMG Labtech, Ortenberg, Germany). Test compounds were dissolved in DMSO; final concentration of solvent in the incubation mixture was 2% (v/v).

[9] = target: T3, PAS of Electrophorus electricus AChE (EeAChE) (Electrophorus electricus, UniProt O42275); assay type: binding; conditions: 20 µM compound concentration
T3 construct: purchased Sigma-Aldrich type VI-S; host or cells: electric eel tissue
T3 sequence (O42275 24-633): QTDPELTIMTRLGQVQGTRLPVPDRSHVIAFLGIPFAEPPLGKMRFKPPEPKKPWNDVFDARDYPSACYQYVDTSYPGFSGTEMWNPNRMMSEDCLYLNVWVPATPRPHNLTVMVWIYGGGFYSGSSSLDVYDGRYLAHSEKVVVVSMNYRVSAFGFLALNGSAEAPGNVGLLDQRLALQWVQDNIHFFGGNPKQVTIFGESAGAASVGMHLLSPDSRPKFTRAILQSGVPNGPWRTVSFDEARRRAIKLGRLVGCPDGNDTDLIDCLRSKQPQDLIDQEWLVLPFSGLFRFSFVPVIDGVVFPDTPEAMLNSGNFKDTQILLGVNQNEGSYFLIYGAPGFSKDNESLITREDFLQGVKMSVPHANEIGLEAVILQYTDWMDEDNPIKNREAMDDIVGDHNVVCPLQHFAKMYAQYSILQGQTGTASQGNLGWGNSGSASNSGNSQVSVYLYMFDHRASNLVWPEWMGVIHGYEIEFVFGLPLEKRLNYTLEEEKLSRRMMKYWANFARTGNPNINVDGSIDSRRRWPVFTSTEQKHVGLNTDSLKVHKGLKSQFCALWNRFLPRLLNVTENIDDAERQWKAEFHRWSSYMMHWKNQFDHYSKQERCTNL
Protocol: The ability of the test compounds to competitively displace propidium was evaluated by the fluorescence method,^[ [65] ^] as described in detail in Makhaeva et al.^[ [66] ^] […] After 15 min of incubation of the test compounds at a concentration of 20 μM with a 7 μM solution of EeAChE in 1 mM Tris‐HCl buffer, pH 8.0, 25°C, propidium iodide (final concentration 8 μM) was added. Then, the solutions were incubated for 15 min and the fluorescence spectrum was recorded (530 nm (excitation) and 600 nm (emission)). […] Measurements were performed in triplicate on a FLUOStar Optima microplate reader (BMG LabTech).
The 7 μM EeAChE was incubated with the test compound at a concentration of 20 μM in 1 mM Tris-HCl buffer pH 8.0, 25 °C, for 15 min. After that, propidium iodide was added at final concentration of 8 μM. The samples were incubated for 15 min and the fluorescence spectrum (530 nm (excitation) and 600 nm (emission)) was taken. […] The measurements were carried out in triplicate on a FLUOStar Optima microplate reader. The degree of propidium displacement (% displacement) from the PAS of EeAChE was calculated by formula (1):
% Displacement = 100 – (IFAChE+ Propidium + inhibitor / IFAChE + Propidium) × 100 (1),
where IFAChE + Propidium is the fluorescence intensity of the propidium associated with AChE in the absence of the test compound (taken as 100%), and IFAChE + Propidium + inhibitor is the fluorescence intensity of the propidium associated with AChE in the presence of the test compound.

β‐amyloid (1–42) (Aβ42) = β‐amyloid (1–42) (Aβ42) (Homo sapiens, UniProt P05067); experiment: Inhibition of Aβ42 self-aggregation (thioflavin T fluorescence); assay type: biochemical; conditions: Aβ42 50 µM, compound 100 µM; read-out: Inhibition of Aβ42 self‐aggregation, %
β‐amyloid (1–42) (Aβ42), sequence (P05067 672-713 limits assumed): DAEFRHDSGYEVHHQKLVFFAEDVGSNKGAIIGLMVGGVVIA
Protocol: Inhibition of Aβ42 self‐aggregation by test compounds was studied using the ThT fluorescence method^[ [67], [68] ^] with minor modifications as described in detail in Makhaeva et al.^[ [16] ^] Lyophilized hexamfluoroisopropanol‐pretreated Aβ42 (GenicBio Limited, 1 mg) was dissolved in DMSO to obtain a stable 500 μM solution. […] Myricetin and propidium iodide in the same concentration were used as references. […] Each assay was run in triplicate.
^c The inhibitory effect of the test compounds toward Aβ42 self-aggregation was determined using the thioflavin T (ThT) fluorescence method ^[5-7] with minor modifications as described in detail in ^[8]. Lyophilized HFIP-pretreated Aβ42 from BACHEM (Bubendorf, Switzerland) was used. […] Myricetin and propidium iodide were used as reference compounds (positive controls). Analyses were performed with a FLUOStar Optima microplate reader (LabTech, Ortenberg, Germany). The inhibition (%) of Aβ42 self-aggregation by the test compounds was calculated by the following equation: […]
where IFi and IFo are the fluorescence intensities obtained for Aβ42 in the presence and in the absence of inhibitor, respectively, after subtracting the fluorescence of respective blanks.

[10] = MTT, mean ± SEM, n = 3, read-out: HEK293T IC50
[11] = HepG2, MTT, 24 h, mean ± SEM, n = 3, read-out: Hep G2 IC50
[12] = MTT, mean ± SEM, n = 3, read-out: SH‐SY5Y IC50

Compound	ABTS^•+‐scavenging activity, TEAC [3]	IC50 (human erythrocyte AChE)	Selectivity index IC50AChE/IC50BChE (equine serum BChE)	IC50 (equine serum BChE)	CES inhibition, % (porcine liver CES [8])	Propidium displacement, % [9]	inhibition at 100 µM (β‐amyloid (1–42) (Aβ42))	IC50 [3]	IC50 [4, 10]	IC50 [5, 11]	IC50 [6, 12]	further results
CCCCCCNC(=O)c1ccccc1O [compound 14, N‐hexylsalicylamide]												CES inhibition, % (porcine liver CES [1]): 4.9 ± 1.0%; ABTS^•+‐scavenging activity, TEAC [2]: 0.39 ± 0.04; IC50 ([2]; read-out: ABTS^•+‐scavenging activity, IC50): 46.5 ± 2.3 µM
Cl.Nc1c2c(nc3c1CCC3)CCCC2.O [Amiridine, 9‐amino‐2,3,5,6,7,8‐hexahydro‐1H‐cyclopenta[b]quinoline monohydrochloride monohydrate, reference compound]	0.040 ± 0.003											IC50 ([4]; read-out: HEK293T IC50): 106 ± 3 µM; IC50 ([5]; HepG2, 24 h, read-out: Hep G2 IC50): 224 ± 11.2 µM; IC50 ([6]; read-out: SH‐SY5Y IC50): 135 ± 18.2 µM; pKa of the endocyclic nitrogen atom [7]: 9.52
O=C(NCCCCNc1c2c(nc3c1CCC3)CCCC2)c1ccccc1O [7a, N‐{4‐[(2,3,5,6,7,8‐Hexahydro‐1H‐cyclopenta[b]quinolin‐9‐yl)amino]butyl}−2‐hydroxybenzamide]	0.97 ± 0.04	1.52 ± 0.14 µM	6.0	0.254 ± 0.023 µM	5.0 ± 0.1%	10.8 ± 0.8%	41.3 ± 3.3%	17.6 ± 0.8 µM	38.4 ± 3.6 µM	74.7 ± 3.4 µM	49.6 ± 3.7 µM	
Oc1ccccc1C=NCCCCNc1c2c(nc3c1CCC3)CCCC2 [9a, 2‐[({4‐[(2,3,5,6,7,8‐Hexahydro‐1H‐cyclopenta[b]quinolin‐9‐yl)amino]butyl}imino)methyl]phenol]	0.65 ± 0.03	3.31 ± 0.02 µM	5.2	0.642 ± 0.007 µM	10.5 ± 0.9%	12.5 ± 1.1%	20.1 ± 1.4%	26.6 ± 1.1 µM	38.1 ± 2.1 µM	> 100 µM	73.2 ± 0.9 µM	ABTS^•+‐scavenging activity, TEAC ([3]; listed as 9a a): 0.65
Oc1ccccc1CNCCCCCCCCNc1c2c(nc3c1CCC3)CCCC2 [10c, 2‐[({8‐[(2,3,5,6,7,8‐Hexahydro‐1H‐cyclopenta[b]quinolin‐9‐yl)amino]octyl}amino)methyl]phenol]	1.48 ± 0.05	0.265 ± 0.018 µM	12.0	0.022 ± 0.0002 µM	56.3±0.3 (IC50= 10.5±0.1 µM) %	15.8 ± 1.1%	96.7 ± 6.7%	10.1 ± 0.6 µM	2.33 ± 0.15 µM	4.19 ± 0.2 µM	10.9 ± 0.6 µM	AChE inhibition, times more active than amiridine (human erythrocyte AChE): about 17 times; IC50 (porcine liver CES [8]; porcine liver CES): 10.5 ± 0.1 µM
